# Laboratory results reported in patent US6479435B1, “Diaryl ethers and processes for their preparation and herbicidal and desiccant compositions containing them” (ISK Americas Incorporated, priority 1997, dated 2002).
# Key:
# Type in all cases: in vivo
# [1] = system: upland rice (Oryza sp., var.Tebonnet, RICE); assay: Post-emerge greenhouse test, crop damage rating; details: 14 days after application
# Source text: (§1) A standard greenhouse herbicide activity screening system was used to evaluate the herbicidal efficacy and crop safety of these test compounds. Six broadleaf weed species including redroot pigweed (Amaranthus retroflexus, AMARE), velvetleaf (Abutilon theophrasti, ABUTH), sicklepod (Cassia obtusifolia, CASOB), ivyleaf morningglory (Ipomoea hederacea, IPOHE), lambsquarters (Chenopodium album, CHEAL) and common ragweed (Ambrosia artemisiifolia L., AMBEL) were used as test species. Four grass weed species including green foxtail (Setaria viridis, SETVI), barnyardgrass (Echinochloa crusgalli, ECHCG), Johnsongrass (Sorghum halepense, SORHA), and large crabgrass (Digitaria sanguinalis, DIGSA) were also used. In addition, three crop species, field corn (Zea mays L., var. Dekalb 535, CORN), soybean (Glycine max L., var. Pella 86, SOY), and upland rice (Oryza sp., var.Tebonnet, RICE) were included.
# (§2) All test compounds were dissolved in acetone and applied to the test units in a volume of 187 l/ha. Test materials were applied at rates ranging from 125 g ai/ha to 1000 g ai/ha using a track sprayer equipped with a TJ8001E even flow flat fan spray nozzle. Plants were arranged on a shelf so that the top of the canopy (post-emerge) or top of the soil surface (pre-emerge) was 40-45 cm below the nozzle. Pressurized air was used to force the test solution through the nozzle as it was mechanically advanced (via electrically driven chain drive) over the top of all test plants/pots. This application simulates a typical commercial field herbicide application.
# (§3) In the post-emerge test, a commercial non-ionic surfactant was also included (0.25% v/v) to enhance wetting of the leaf surfaces Qf target plants at rates ranging from 63 g ai/ha to 1000 g ai/ha. For post-emerge tests, seeds were planted 8-21 days prior to the test to allow emergence and good foliage development prior to application of the test substances. At the time of the post-emerge application, plants of all species were usually at the 2-3 leaf stage of development. Post-emerge test units were always bottom-watered.
# (§4) At 14 days after application of the test materials, phytotoxicity ratings were recorded. A rating scale of 0-100 was used as previously described in Research Methods in Weed Science, 2nd edition, B. Truelove, Ed., Southern Weed Science Society, Auburn University, Auburn, Ala., 1977. Briefly, “0” corresponds to no damage and “100” corresponds to complete death of all plants in the test unit. This scale was used both to determine efficacy against weed species and damage to crop species. Herbicide activity data for various compounds of this invention, which are shown by compound number in Tables 1-9, are shown in Tables 13 and 14.
# [2] = system: field corn (Zea mays L., var. Dekalb 535, CORN); assay: Post-emerge greenhouse test, crop damage rating; details: 14 days after application
# Source text: as §1, §2, §3, §4
# [3] = system: Johnsongrass (Sorghum halepense, SORHA); assay: Pre-emerge greenhouse herbicide test, phytotoxicity rating; details: 14 days after application, rating scale 0-100
# Source text: as §1
# (§5) All plants were grown in 10 cm square plastic pots which were filled with a sandy loam soil mix. For preemerge tests, seeds were planted one day prior to application of the test compounds. Immediately after application, test units of the pre-emerge applications were watered at the soil surface to incorporate the test materials. Subsequently, these test units were bottom-watered.
# as §2, §4
# [4] = system: green foxtail (Setaria viridis, SETVI); assay: as above; details: 14 days after application, rating scale 0-100
# Source text: as §1, §5, §2, §4
# [5] = system: redroot pigweed (Amaranthus retroflexus, AMARE); assay: as above; details: 14 days after application, rating scale 0-100
# Source text: as §1, §5, §2, §4
# [6] = system: velvetleaf (Abutilon theophrasti, ABUTH); assay: as above; details: 14 days after application, rating scale 0-100
# Source text: as §1, §5, §2, §4
# [7] = system: barnyardgrass (Echinochloa crusgalli, ECHCG); assay: as above; details: 14 days after application, rating scale 0-100
# Source text: as §1, §5, §2, §4
# [8] = system: large crabgrass (Digitaria sanguinalis, DIGSA); assay: as above; details: 14 days after application, rating scale 0-100
# Source text: as §1, §5, §2, §4
# [9] = system: ivyleaf morningglory (Ipomoea hederacea, IPOHE); assay: as above; details: 14 days after application, rating scale 0-100
# Source text: as §1, §5, §2, §4
# [10] = system: sicklepod (Cassia obtusifolia, CASOB); assay: as above; details: 14 days after application, rating scale 0-100
# Source text: as §1, §5, §2, §4
# [11] = system: lambsquarters (Chenopodium album, CHEAL); assay: as above; details: 14 days after application, rating scale 0-100
# Source text: as §1, §5, §2, §4
# [12] = system: soybean (Glycine max L., var. Pella 86, SOY); assay: Pre-emerge greenhouse test, crop damage rating; details: 14 days after application, rating scale 0-100
# Source text: as §1, §5, §2, §4
# [13] = system: soybean (Glycine max L., var. Pella 86, SOY); assay: Post-emerge greenhouse test, crop damage rating; details: 14 days after application
# Source text: as §1, §2, §3, §4
# [14] = system: upland rice (Oryza sp., var.Tebonnet, RICE); assay: Pre-emerge greenhouse test, crop damage rating; details: 14 days after application, rating scale 0-100
# Source text: as §1, §5, §2, §4
# [15] = system: field corn (Zea mays L., var. Dekalb 535, CORN); assay: Pre-emerge greenhouse test, crop damage rating; details: 14 days after application, rating scale 0-100
# Source text: as §1, §5, §2, §4
# [16] = system: Johnsongrass (Sorghum halepense, SORHA); assay: Post-emerge greenhouse herbicide test, phytotoxicity rating; details: 14 days after application
# Source text: as §1, §2, §3, §4
# [17] = system: green foxtail (Setaria viridis, SETVI); assay: as above; details: 14 days after application
# Source text: as §1, §2, §3, §4
# [18] = system: redroot pigweed (Amaranthus retroflexus, AMARE); assay: as above; details: 14 days after application
# Source text: as §1, §2, §3, §4
# [19] = system: velvetleaf (Abutilon theophrasti, ABUTH); assay: as above; details: 14 days after application
# Source text: as §1, §2, §3, §4
# [20] = system: barnyardgrass (Echinochloa crusgalli, ECHCG); assay: as above; details: 14 days after application
# Source text: as §1, §2, §3, §4
# [21] = system: large crabgrass (Digitaria sanguinalis, DIGSA); assay: as above; details: 14 days after application
# Source text: as §1, §2, §3, §4
# [22] = system: ivyleaf morningglory (Ipomoea hederacea, IPOHE); assay: as above; details: 14 days after application
# Source text: as §1, §2, §3, §4
# [23] = system: sicklepod (Cassia obtusifolia, CASOB); assay: as above; details: 14 days after application
# Source text: as §1, §2, §3, §4
# [24] = system: lambsquarters (Chenopodium album, CHEAL); assay: as above; details: 14 days after application
# Source text: as §1, §2, §3, §4
compound,measurement,setting,value
Nc1ccc(Oc2cc(-n3c(=O)cc4n(c3=O)CCC4)c(F)cc2Cl)cc1 [Compound 5-3],RICE crop damage rating (0-100),[1]; 1000 g al/ha,0
same,CORN crop damage rating (0-100),[2]; 1000 g al/ha,0
same,phytotoxicity rating SORHA,[3]; 1000 g ai/ha,40
same,phytotoxicity rating SETVI,[4]; 1000 g ai/ha,20
same,phytotoxicity rating AMARE,[5]; 1000 g ai/ha,100
same,phytotoxicity rating ABUTH,[6]; 1000 g ai/ha,99
same,phytotoxicity rating ECHCG,[7]; 1000 g ai/ha,0
same,phytotoxicity rating DIGSA,[8]; 1000 g ai/ha,70
same,phytotoxicity rating IPOHE,[9]; 1000 g ai/ha,0
same,phytotoxicity rating CASOB,[10]; 1000 g ai/ha,10
same,phytotoxicity rating CHEAL,[11]; 1000 g ai/ha,0
same,crop damage rating SOY,[12]; 1000 g ai/ha,40
same,SOY crop damage rating (0-100),[13]; 1000 g al/ha,0
same,crop damage rating RICE,[14]; 1000 g ai/ha,20
same,crop damage rating CORN,[15]; 1000 g ai/ha,0
same,SORHA phytotoxicity rating (0-100),[16]; 1000 g al/ha,0
same,SETVI phytotoxicity rating (0-100),[17]; 1000 g al/ha,0
same,AMARE phytotoxicity rating (0-100),[18]; 1000 g al/ha,0
same,ABUTH phytotoxicity rating (0-100),[19]; 1000 g al/ha,0
same,ECHCG phytotoxicity rating (0-100),[20]; 1000 g al/ha,0
same,DIGSA phytotoxicity rating (0-100),[21]; 1000 g al/ha,0
same,IPOHE phytotoxicity rating (0-100),[22]; 1000 g al/ha,0
same,CASOB phytotoxicity rating (0-100),[23]; 1000 g al/ha,0
same,CHEAL phytotoxicity rating (0-100),[24]; 1000 g al/ha,0
CS(=O)(=O)Nc1ccc(Oc2cc(-n3c(=O)cc4n(c3=O)CCC4)c(F)cc2Cl)cc1 [Compound 5-5],RICE crop damage rating (0-100),[1]; 500 g al/ha,0
same,CORN crop damage rating (0-100),[2]; 500 g al/ha,0
same,phytotoxicity rating SORHA,[3]; 500 g ai/ha,0
same,phytotoxicity rating SETVI,[4]; 500 g ai/ha,0
same,phytotoxicity rating AMARE,[5]; 500 g ai/ha,95
same,phytotoxicity rating ABUTH,[6]; 500 g ai/ha,50
same,phytotoxicity rating ECHCG,[7]; 500 g ai/ha,0
same,phytotoxicity rating DIGSA,[8]; 500 g ai/ha,0
same,phytotoxicity rating IPOHE,[9]; 500 g ai/ha,0
same,phytotoxicity rating CASOB,[10]; 500 g ai/ha,0
same,phytotoxicity rating CHEAL,[11]; 500 g ai/ha,100
same,crop damage rating SOY,[12]; 500 g ai/ha,10
same,SOY crop damage rating (0-100),[13]; 500 g al/ha,0
same,crop damage rating RICE,[14]; 500 g ai/ha,0
same,crop damage rating CORN,[15]; 500 g ai/ha,0
same,SORHA phytotoxicity rating (0-100),[16]; 500 g al/ha,0
same,SETVI phytotoxicity rating (0-100),[17]; 500 g al/ha,0
same,AMARE phytotoxicity rating (0-100),[18]; 500 g al/ha,0
same,ABUTH phytotoxicity rating (0-100),[19]; 500 g al/ha,0
same,ECHCG phytotoxicity rating (0-100),[20]; 500 g al/ha,0
same,DIGSA phytotoxicity rating (0-100),[21]; 500 g al/ha,0
same,IPOHE phytotoxicity rating (0-100),[22]; 500 g al/ha,0
same,CASOB phytotoxicity rating (0-100),[23]; 500 g al/ha,0
same,CHEAL phytotoxicity rating (0-100),[24]; 500 g al/ha,0
CCOC(=O)C(C)Oc1ccc(Oc2cc(-n3c(=O)cc4n(c3=O)CCC4)c(F)cc2Cl)cc1 (stereo not drawn) [Compound 5-6],RICE crop damage rating (0-100),[1]; 1000 g al/ha,60
same,CORN crop damage rating (0-100),[2]; 1000 g al/ha,80
same,phytotoxicity rating SORHA,[3]; 1000 g ai/ha,50
same,phytotoxicity rating SETVI,[4]; 1000 g ai/ha,100
same,phytotoxicity rating AMARE,[5]; 1000 g ai/ha,100
same,phytotoxicity rating ABUTH,[6]; 1000 g ai/ha,100
same,phytotoxicity rating ECHCG,[7]; 1000 g ai/ha,70
same,phytotoxicity rating DIGSA,[8]; 1000 g ai/ha,70
same,phytotoxicity rating IPOHE,[9]; 1000 g ai/ha,100
same,phytotoxicity rating CASOB,[10]; 1000 g ai/ha,40
same,phytotoxicity rating CHEAL,[11]; 1000 g ai/ha,100
same,crop damage rating SOY,[12]; 1000 g ai/ha,60
same,SOY crop damage rating (0-100),[13]; 1000 g al/ha,80
same,crop damage rating RICE,[14]; 1000 g ai/ha,80
same,crop damage rating CORN,[15]; 1000 g ai/ha,40
same,SORHA phytotoxicity rating (0-100),[16]; 1000 g al/ha,95
same,SETVI phytotoxicity rating (0-100),[17]; 1000 g al/ha,50
same,AMARE phytotoxicity rating (0-100),[18]; 1000 g al/ha,90
same,ABUTH phytotoxicity rating (0-100),[19]; 1000 g al/ha,100
same,ECHCG phytotoxicity rating (0-100),[20]; 1000 g al/ha,95
same,DIGSA phytotoxicity rating (0-100),[21]; 1000 g al/ha,40
same,IPOHE phytotoxicity rating (0-100),[22]; 1000 g al/ha,100
same,CASOB phytotoxicity rating (0-100),[23]; 1000 g al/ha,40
same,CHEAL phytotoxicity rating (0-100),[24]; 1000 g al/ha,100
O=c1cc2n(c(=O)n1-c1cc(Oc3ncccc3[N+](=O)[O-])c(Cl)cc1F)CCC2 [Compound 5-8],RICE crop damage rating (0-100),[1]; 1000 g al/ha,0
same,CORN crop damage rating (0-100),[2]; 1000 g al/ha,0
same,phytotoxicity rating SORHA,[3]; 1000 g ai/ha,95
same,phytotoxicity rating SETVI,[4]; 1000 g ai/ha,95
same,phytotoxicity rating AMARE,[5]; 1000 g ai/ha,100
same,phytotoxicity rating ABUTH,[6]; 1000 g ai/ha,100
same,phytotoxicity rating ECHCG,[7]; 1000 g ai/ha,85
same,phytotoxicity rating DIGSA,[8]; 1000 g ai/ha,100
same,phytotoxicity rating IPOHE,[9]; 1000 g ai/ha,80
same,phytotoxicity rating CASOB,[10]; 1000 g ai/ha,0
same,phytotoxicity rating CHEAL,[11]; 1000 g ai/ha,100
same,crop damage rating SOY,[12]; 1000 g ai/ha,50
same,SOY crop damage rating (0-100),[13]; 1000 g al/ha,20
same,crop damage rating RICE,[14]; 1000 g ai/ha,50
same,crop damage rating CORN,[15]; 1000 g ai/ha,15
same,SORHA phytotoxicity rating (0-100),[16]; 1000 g al/ha,0
same,SETVI phytotoxicity rating (0-100),[17]; 1000 g al/ha,10
same,AMARE phytotoxicity rating (0-100),[18]; 1000 g al/ha,40
same,ABUTH phytotoxicity rating (0-100),[19]; 1000 g al/ha,100
same,ECHCG phytotoxicity rating (0-100),[20]; 1000 g al/ha,0
same,DIGSA phytotoxicity rating (0-100),[21]; 1000 g al/ha,0
same,IPOHE phytotoxicity rating (0-100),[22]; 1000 g al/ha,80
same,CASOB phytotoxicity rating (0-100),[23]; 1000 g al/ha,30
same,CHEAL phytotoxicity rating (0-100),[24]; 1000 g al/ha,60
